A word on the IC50: it is the concentration that inhibits the measured activity by half.

Several values for one entry are separate records, joined by “and”; a condition that tells them apart may be missing. Equal values may be shown once.

For assay [1], the target named is T1, VLA-4 (a4b1 integrin) (Homo sapiens, UniProt P05556+P13612).
T1 construct: followed by 10 µl of Ramos cell-derived VLA-4; endogenous in cells; host or cells: Ramos cells (VLA-4 preparation derived from the cells)
Put plainly: Ramos (VLA-4) / VCAM-1 Cell-Based Screening Assay (cell adhesion). The source says:
Ramos (VLA-4) / VCAM-1 Cell-Based Screening Assay Protocol
Calcein-AM was purchased from Molecular Probes Inc.
VLA-4 (a4b1 integrin) antagonist activity, defined as ability to compete with cell-surface VLA-4 for binding to immobilized VCAM-1, was quantitated using a Ramos-VCAM-1 cell adhesion assay. Ramos cells bearing cell-surface VLA-4, were labeled with a fluorescent dye (Calcein-AM) and allowed to bind VCAM-1 in the presence or absence of test compounds.
Initially, this entailed coating 96 well plates (Nunc Maxisorp) with recombinant human VCAM-1 (100 ng in 100 µl PBS), sealing each plate and allowing the plates to stand at 4°C for Å18 hr. The VCAM-coated plates were subsequently washed twice with 0.05% Tween-20 in PBS, and then blocked for 1hr (room temperature) with 200 µl of Blocking Buffer (1% BSA/0.02% thimerosal) to reduce non-specific binding. Following the incubation with Blocking Buffer, plates were inverted, blotted and the remaining buffer aspirated. Each plate was then washed with 300 µl PBS, inverted and the remaining PBS aspirated.
Test compounds were dissolved in 100% DMSO and then diluted 1:25 in VCAM Cell Adhesion Assay Buffer (4 mM CaCl2, 4 mM MgCl2 in 50 mM TRIS-HCl, pH 7.5) (final DMSO = 4%). […] 100 µl/well of each dilution was added to the VCAM-coated plates, followed by 100 µl of Ramos cells (200,000 cells/well in 1% BSA/PBS). […] Plates were inverted to remove non-adherent cells, blotted and 300 µl/well PBS added. Plates were again inverted, blotted and the remaining buffer gently aspirated. 100 µl Lysis Buffer (0.1% SDS in 50 mM TRIS-HCl, pH 8.5) was added to each well and agitated for 2 min on a rotary shaking platform.

The target of assay [2] is T1, VLA-4 (a4b1 integrin). Description: VLA-4 / VCAM-1 Screening Assay (solid-phase, dual antibody ELISA). Particulars: Ramos cell-derived VLA-4 binding to immobilized recombinant human VCAM-1, 1 mM MnCl2, 2 hr at 37 °C. As to the method:
VLA-4 / VCAM-1 Screening Assay
VLA-4 antagonist activity, defined as ability to compete for binding to immobilized VCAM-1, was quantitated using a solid-phase, dual antibody ELISA. VLA-4 (a4b1 integrin) bound to VCAM-1 is detected by a complex of anti-integrin b1 antibody: HRP-conjugated anti-mouse IgG: chromogenic substrate (K-Blue). Initially, this entailed coating 96 well plates (Nunc Maxisorp) with recombinant human VCAM-1 (0.4 µg in 100 µl PBS), sealing each plate and then allowing the plates to stand at 4°C for Å18 hr. […] On the day of assay, all plates are washed twice with VCAM Assay Buffer (200 µl/well of 50 mM Tris-HCl, 100 mM NaCl, 1 mM MnCl2, 0.05% Tween 20; pH 7.4). Test compounds are dissolved in 100% DMSO and then diluted 1:20 in VCAM Assay Buffer supplemented with 1mg/mL BSA (i.e., final DMSO = 5%). […] 100 µl per well of each dilution is added to the VCAM-coated plates, followed by 10 µl of Ramos cell-derived VLA-4. These plates are sequentially mixed on a platform shaker for 1 min, incubated for 2 hr at 37 °C, and then washed four times with 200 µl/well VCAM Assay Buffer. 100 µl of mouse anti-human integrin b1 antibody is added to each well (0.6 µg/mL in VCAM Assay Buffer + 1mg/mL BSA) and allowed to incubate for 1 hr at 37°C. At the conclusion of this incubation period, all plates are washed four times with VCAM Assay Buffer (200 µl/well). A corresponding second antibody, HRP-conjugated goat anti-mouse IgG (100 µl per well @ 1:800 dilution in VCAM Assay Buffer + 1mg/mL BSA), is then added to each well, followed by a 1 hr incubation at room temperature and concluded by three washes (200µl/well) with VCAM Assay Buffer. Color development is initiated by addition of 100 µl K-Blue per well (15 min incubation, room temp) and terminated by addition of 100 µl Red Stop Buffer per well. […] Results are calculated as % inhibition of total binding (i.e., VLA-4 + VCAM-1 in the absence of test compound).

The mark [3] stands for this setting: Calcein-AM labeled Ramos cells adhering to immobilized recombinant human VCAM-1, 45 min at room temperature, read-out: Ramos IC50.

T1 sequence (P13612 34-1032): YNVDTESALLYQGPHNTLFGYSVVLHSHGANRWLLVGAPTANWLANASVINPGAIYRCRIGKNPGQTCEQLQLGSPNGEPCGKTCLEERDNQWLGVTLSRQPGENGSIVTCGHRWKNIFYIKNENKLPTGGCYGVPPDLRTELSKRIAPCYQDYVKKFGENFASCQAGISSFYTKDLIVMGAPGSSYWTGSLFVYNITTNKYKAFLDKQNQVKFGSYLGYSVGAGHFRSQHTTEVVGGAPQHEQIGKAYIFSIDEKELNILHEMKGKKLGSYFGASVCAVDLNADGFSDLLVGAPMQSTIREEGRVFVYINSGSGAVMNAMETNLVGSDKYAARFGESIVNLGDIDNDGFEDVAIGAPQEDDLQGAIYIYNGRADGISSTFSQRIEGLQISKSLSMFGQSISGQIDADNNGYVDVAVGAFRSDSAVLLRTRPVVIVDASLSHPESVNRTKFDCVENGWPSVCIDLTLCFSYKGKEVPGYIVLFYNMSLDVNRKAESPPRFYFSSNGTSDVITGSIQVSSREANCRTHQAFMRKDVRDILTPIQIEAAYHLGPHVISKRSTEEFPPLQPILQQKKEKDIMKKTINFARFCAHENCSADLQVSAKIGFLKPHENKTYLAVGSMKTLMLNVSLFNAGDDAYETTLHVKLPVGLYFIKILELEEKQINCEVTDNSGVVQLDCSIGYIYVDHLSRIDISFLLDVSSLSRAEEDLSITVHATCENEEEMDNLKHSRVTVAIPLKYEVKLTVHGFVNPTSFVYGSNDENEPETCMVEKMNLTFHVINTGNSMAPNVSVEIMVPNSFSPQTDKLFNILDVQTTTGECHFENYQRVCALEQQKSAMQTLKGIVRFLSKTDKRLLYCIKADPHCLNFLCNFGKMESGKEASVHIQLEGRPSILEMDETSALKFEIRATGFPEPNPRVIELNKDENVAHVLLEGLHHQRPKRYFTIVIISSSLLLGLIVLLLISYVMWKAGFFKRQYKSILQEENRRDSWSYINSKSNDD
T1 sequence (P05556 21-798): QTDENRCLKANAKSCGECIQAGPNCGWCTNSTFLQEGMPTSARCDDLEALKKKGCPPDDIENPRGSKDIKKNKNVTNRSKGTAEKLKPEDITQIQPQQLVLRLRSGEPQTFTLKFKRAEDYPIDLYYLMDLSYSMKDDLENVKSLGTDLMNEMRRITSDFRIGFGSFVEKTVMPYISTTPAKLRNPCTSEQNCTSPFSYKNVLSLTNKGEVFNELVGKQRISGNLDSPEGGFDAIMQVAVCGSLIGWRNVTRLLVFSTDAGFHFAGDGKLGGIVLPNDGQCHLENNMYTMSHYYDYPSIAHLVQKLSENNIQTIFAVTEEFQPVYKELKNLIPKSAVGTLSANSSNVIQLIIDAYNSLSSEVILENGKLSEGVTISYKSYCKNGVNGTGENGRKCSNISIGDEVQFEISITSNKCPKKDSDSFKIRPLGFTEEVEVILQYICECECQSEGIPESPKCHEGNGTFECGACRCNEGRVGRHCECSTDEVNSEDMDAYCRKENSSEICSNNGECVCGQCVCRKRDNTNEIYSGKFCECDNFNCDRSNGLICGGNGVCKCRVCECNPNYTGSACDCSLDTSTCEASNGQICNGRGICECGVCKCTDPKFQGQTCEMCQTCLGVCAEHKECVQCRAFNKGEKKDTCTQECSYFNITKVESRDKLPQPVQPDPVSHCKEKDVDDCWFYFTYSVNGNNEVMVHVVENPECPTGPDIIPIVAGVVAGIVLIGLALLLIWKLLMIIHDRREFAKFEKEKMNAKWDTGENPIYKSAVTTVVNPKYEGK

Turning to `CS(=O)(=O)c1ccc(C(=O)N[C@@H](Cc2ccc(NC(=O)c3c(Cl)cccc3Cl)cc2)C(=O)O)c(Cl)c1` [Example 94], the IC50 in assay [1] (setting [3]) is 9.5 nM; in assay [2] (read-out: ELISA IC50), 0.25 nM. With `Cc1cc(C(F)(F)F)c(C(=O)N[C@@H](Cc2ccc(NC(=O)c3c(Cl)cccc3Cl)cc2)C(=O)O)c(C)n1` [Example 156], in assay [1] (setting [3]), the IC50 is 114 nM. Still for that read-out and setting: then `Cc1cccc(Cl)c1C(=O)Nc1ccc(C[C@H](NC(=O)c2c(Cl)cccc2Cl)C(=O)O)cc1` [Example 169, N-[(2,6-Dichlorophenyl)carbonyl]-4-[[(2-chloro-6-methylphenyl)carbonyl]amino]-L-phenylalanine], with 30 nM. For `Cc1cccc(Cl)c1C(=O)N[C@@H](Cc1ccc(N2C(=O)c3ccc(C#N)cc3C2=O)cc1)C(=O)O` [Example 125], the IC50 in assay [2] (read-out: ELISA IC50 nM) was 1.7 nM. For “4-[(2S,4R)-3-Acetyl-2-phenyl-4-(3-pyridinylmethyl)-5-oxo-1-imidazolinyl]-N-[(2-chloro-6-methylphenyl)carbonyl]-L-phenylalanine and 4-[(2R,4R)-3-acetyl-2-phenyl-4-(3-pyridinylmethyl)-5-oxo-1-imidazolinyl]-N-[(2-chloro-6-methylphenyl)carbonyl]-L-phenylalanine [Example 171]”, the IC50 in assay [1] (setting [3]) was 13.5 nM.

Consider `COc1ccc(Br)c(C(=O)N[C@@H](Cc2ccc(NC(=O)c3c(Cl)cccc3Cl)cc2)C(=O)O)c1` [Example 24], for which the IC50 in assay [2] (read-out: ELISA IC50) came out at 0.25 nM.

Turning to `Cc1cccc(Cl)c1C(=O)N[C@@H](Cc1ccc(NC(=O)c2c(F)c(F)c(F)c(F)c2F)cc1)C(=O)O` [Example 115, N-[1-(2-Chloro-6-methylphenyl)carbonyl]-4-[[(2,3,4,5,6-pentafluorophenyl)carbonyl]amino]-L-phenylalanine], the IC50 in assay [1] (setting [3]) was 678 nM; in assay [2] (read-out: ELISA IC50), 4.5 nM.

In the case of `CC(=O)N1C(Cc2ccccc2)C(=O)N(c2ccc(C[C@H](NC(=O)c3c(C)cccc3Cl)C(=O)O)cc2)C1c1ccccc1` (single isomer, unassigned) [Example 170], the IC50 in assay [1] (setting [3]) is 33.5 nM.

For `Cc1cccc(C(=O)N[C@@H](Cc2ccc(NC(=O)c3c(Cl)cccc3Cl)cc2)C(=O)O)c1Cl` [Example 21], the values for the IC50 in assay [1] (setting [3]) and in assay [2] (read-out: ELISA IC50) were 1270 nM and 1.4 nM, respectively. In the case of `O=C(Nc1ccc(C[C@H](NC(=O)c2cccc3ccccc23)C(=O)O)cc1)c1c(Cl)cccc1Cl` [Example 15], the half-maximal inhibitory concentration (IC50) in assay [1] (setting [3]) was 2600 nM. Turning to `C[S+]([O-])c1ccccc1C(=O)N[C@@H](Cc1ccc(NC(=O)c2c(Cl)cccc2Cl)cc1)C(=O)O` (single isomer, unassigned) [Example 30, 4-[[(2,6-dichlorophenyl)carbonyl]amino]-N-[[2-(methylsulfinyl)phenyl]carbonyl]-L-phenylalanine], the IC50 in assay [2] (read-out: ELISA IC50) is 2 nM and 1.6 nM.

For the compound `O=C(Nc1ccc(C[C@H](NC(=O)c2c(F)cccc2C(F)(F)F)C(=O)O)cc1)c1c(Cl)cccc1Cl` [Example 16], the IC50 in assay [1] (setting [3]) is 85 nM.

In the case of `COc1ccccc1C(=O)N[C@@H](Cc1ccc(NC(=O)c2c(Cl)cccc2Cl)cc1)C(=O)O` [Example 26], in assay [2] (read-out: ELISA IC50), the IC50 was 8.6 nM. On the same count and under the same terms, the figure for `CC(=O)N1[C@H](CC(C)C)C(=O)N(c2ccc(C[C@H](NC(=O)c3c(C)cccc3Cl)C(=O)O)cc2)[C@@H]1C(C)(C)C` [Example 102] is 41 nM. On the same count and under the same terms, then `CNc1ccccc1C(=O)N[C@@H](Cc1ccc(NC(=O)c2c(Cl)cccc2Cl)cc1)C(=O)O` [Example 27], with 1.9 nM. Turning to `COc1ccc(C(=O)N[C@@H](Cc2ccc(NC(=O)c3c(Cl)cccc3Cl)cc2)C(=O)O)c(Cl)c1` [Example 19], the IC50 in assay [1] (setting [3]) is 351 nM. As to `O=C(N[C@@H](Cc1ccc(NC(=O)c2c(Cl)cccc2Cl)cc1)C(=O)O)c1ccc(O)cc1Cl` [Example 95], the IC50 was 33 nM in assay [1] (setting [3]) and 0.46 nM in assay [2] (read-out: ELISA IC50). The matching figures for `Cc1cccc(C(C)C)c1C(=O)N[C@@H](Cc1ccc(NC(=O)c2c(Cl)cccc2Cl)cc1)C(=O)O` [Example 90]: 23 nM and 1.2 nM. For the compound `Cc1cc(C(F)(F)F)c(C(=O)Nc2ccc(C[C@H](NC(=O)c3c(C)cccc3Cl)C(=O)O)cc2)c(C)n1` [Example 150], the half-maximal inhibitory concentration (IC50) in assay [1] stood at 47 nM.

Take `CS(=O)(=O)c1ccccc1C(=O)N[C@@H](Cc1ccc(NC(=O)c2c(Cl)cccc2Cl)cc1)C(=O)O` [Example 28]: the IC50 in assay [2] (read-out: ELISA IC50) turned out to be 3.3 nM.

With `COC(=O)[C@H](Cc1ccc(N2C(=O)[C@@H](C(C)C)N(C)C2=O)cc1)NC(=O)c1c(C)cccc1Cl` [Example 96, N-(2-Chloro-6-methylbenzoyl)-[(R)-2,5-dioxo-3-methyl-4-(1-methylethyl)-1-imidazolininyl]-L-phenylalanine methyl ester], in assay [2] (read-out: ELISA IC50), the IC50 stood at 0.47 nM.

In the case of `Cc1cccc(Cl)c1C(=O)N[C@@H](Cc1ccc(NC(=O)c2c(Cl)cccc2Cl)cc1)C(=O)O` [Example 13], the IC50 was 15 nM in assay [1] (setting [3]) and 0.33 nM in assay [2] (read-out: ELISA IC50). Consider `Cc1cccc(Cl)c1C(=O)N[C@@H](Cc1ccc(NC(=O)c2c(F)cccc2F)cc1)C(=O)O` [Example 114, N-[1-(2-Chloro-6-methylphenyl)carbonyl]-4-[[(2,6-difluorophenyl)carbonyl]amino]-L-phenylalanine], for which, in assay [2] (read-out: ELISA IC50), the IC50 worked out at 1.14 nM. For the compound `Nc1ccc(C(=O)N[C@@H](Cc2ccc(NC(=O)c3c(Cl)cccc3Cl)cc2)C(=O)O)c(Cl)c1` [Example 124, N-[(4-amino-2-chlorophenyl)carbonyl]-4-[[(2,6-dichlorophenyl)carbonyl]amino]-L-phenylalanine], the values for the IC50 in assay [1] (setting [3]) and in assay [2] (read-out: ELISA IC50) were 985 nM and 0.63 nM, respectively. On to `CC(C)c1cccc(C(C)C)c1C(=O)N[C@@H](Cc1ccc(NC(=O)c2c(Cl)cccc2Cl)cc1)C(=O)O` [Example 18], for which the IC50 in assay [2] (read-out: ELISA IC50) turned out to be 11 nM. As to `O=C(N[C@@H](Cc1ccc(NC(=O)c2c(Cl)cccc2Cl)cc1)C(=O)O)c1ccc(Br)cc1Cl` [Example 22], the IC50 in assay [1] (setting [3]) is 1320 nM; in assay [2] (read-out: ELISA IC50) it was 1.6 nM. For `Cc1cccc(Cl)c1C(=O)N[C@@H](Cc1ccc(NC(=O)c2c(C)ccnc2C)cc1)C(=O)O` [Example 107], the IC50 in assay [1] amounted to 20 nM; in assay [2] (ELISA IC50 nM), 0.79 nM. In the case of `O=C(N[C@@H](Cc1ccc(NC(=O)c2c(Cl)cccc2Cl)cc1)C(=O)O)c1cccc(Cl)c1Cl` [Example 20], the IC50 in assay [1] (setting [3]) was 1630 nM; in assay [2] (read-out: ELISA IC50), 2.2 nM.
